Patent publication US11312727B1, “Macrocyclic flu endonuclease inhibitors” (Janssen BioPharma, Inc., priority 2018, dated 2022)

Key:
[1] = test system: Influenza strain A549 A/WSN/33 (H1N1); assay: microbe, parasite or virus in culture; assay type: cell-based; settings: Influenza A virus, A549, 20 h, A549 cells, influenza A/WSN/33 (H1N1), 20 hours incubation; read-out: A549_A(H1N1) EC50
[2] = in vitro; settings: human, CC50, uninfected A549 cells, CellTiter-Glo

Row | Compound | EC50 [1] [nM] | CC50 [2] [nM]
1 | C[C@@H]1/C=C/COc2c(F)cccc2[C@@H](c2ccccc2)N2CN1C(=O)c1c(O)c(=O)ccn12 (single isomer, unassigned) [Compound 141AA, (9*R,18*R,E)-4-fluoro-12-hydroxy-9-methyl-18-phenyl-6,9-dihydro-18H-10,17-methanobenzo[b]pyrido[1,2-f][1]oxa[5,6,9]triazacyclotridecine-11,13-dione] | 1.5 | > 50
2 | C[C@H]1/C=C/COc2c(F)cccc2[C@@H](c2ccccc2)N2CN1C(=O)c1c(O)c(=O)ccn12 (single isomer, unassigned) [Compound 141AB, (9*S,18*R,E)-4-fluoro-12-hydroxy-9-methyl-18-phenyl-6,9-dihydro-18H-10,17-methanobenzo[b]pyrido[1,2-f][1]oxa[5,6,9]triazacyclotridecine-11,13-dione] | 2 | > 50
3 | C[C@@H]1/C=C/COc2c(F)cccc2[C@H](c2ccccc2)N2CN1C(=O)c1c(O)c(=O)ccn12 (single isomer, unassigned) [Compound 141BA, (9*R,18*S,E)-4-fluoro-12-hydroxy-9-methyl-18-phenyl-6,9-dihydro-18H-10,17-methanobenzo[b]pyrido[1,2-f][1]oxa[5,6,9]triazacyclotridecine-11,13-dione] | 306 | > 20000
4 | C[C@H]1/C=C/COc2c(F)cccc2[C@H](c2ccccc2)N2CN1C(=O)c1c(O)c(=O)ccn12 (single isomer, unassigned) [Compound 141BB, (9*S,18*S,E)-4-fluoro-12-hydroxy-9-methyl-18-phenyl-6,9-dihydro-18H-10,17-methanobenzo[b]pyrido[1,2-f][1]oxa[5,6,9]triazacyclotridecine-11,13-dione] | 627 | > 20000
5 | O=C1c2c(O)c(=O)ccn2N2CN1CC[C@@H]1C[C@@H]1COc1cccc3c1[C@@H]2c1ccccc1SC3 (single isomer, unassigned) [Compound 144AA, (1*R,13*S,15*S)-7-hydroxy-17-oxa-24-thia-2,3,10-triazaheptacyclo[16.12.1.12,10.03,8.013,15.022,31.025,30]dotriaconta-4,18,20,22(31),25(30),26,28-heptaene-6,9-dione] | > 100 | > 200
6 | O=C1c2c(O)c(=O)ccn2N2CN1CC[C@H]1C[C@H]1COc1cccc3c1[C@@H]2c1ccccc1SC3 (single isomer, unassigned) [Compound 144AB, (1*R,13*R,15*R)-7-hydroxy-17-oxa-24-thia-2,3,10-triazaheptacyclo[16.12.1.12,10.03,8.013,15.022,31.025,30]dotriaconta-4,18,20,22(31),25(30),26,28-heptaene-6,9-dione] | > 100 | > 200
7 | O=C1c2c(O)c(=O)ccn2N2CN1CC[C@@H]1C[C@@H]1COc1cccc3c1[C@H]2c1ccccc1SC3 (single isomer, unassigned) [Compound 144BA, (1*S,13*S,15*S)-7-hydroxy-17-oxa-24-thia-2,3,10-triazaheptacyclo[16.12.1.12,10.03,8.013,15.022,31.025,30]dotriaconta-4,18,20,22(31),25(30),26,28-heptaene-6,9-dione] | 72.9 | > 200
8 | O=C1c2c(O)c(=O)ccn2N2CN1CC[C@H]1C[C@H]1COc1cccc3c1C2c1ccccc1SC3 (single isomer, unassigned) [Compound 144BB, (1*S,13*R,15*R)-7-hydroxy-17-oxa-24-thia-2,3,10-triazaheptacyclo[16.12.1.12,10.03,8.013,15.022,31.025,30]dotriaconta-4,18,20,22(31),25(30),26,28-heptaene-6,9-dione] | 51.3 | > 4000
9 | O=C1c2c(O)c(=O)ccn2N2CN1C1(/C=C/COc3c(F)cccc3[C@H]2c2ccccc2)CCC1 (single isomer, unassigned) [Compound 145A, (18′*R,E)-4′-fluoro-12′-hydroxy-18′-phenyl-6′H,18′H-spiro[cyclobutane-1,9′-[10,17]methanobenzo[b]pyrido[1,2-f][1]oxa[5,6,9]triazacyclotridecine]-11′,13′-dione] | 3.1 | > 100
10 | O=C1c2c(O)c(=O)ccn2N2CN1C1(/C=C/COc3c(F)cccc3[C@@H]2c2ccccc2)CCC1 (single isomer, unassigned) [Compound 145B, (18′*S,E)-4′-fluoro-12′-hydroxy-18′-phenyl-6′H,18′H-spiro[cyclobutane-1,9′-[10,17]methanobenzo[b]pyrido[1,2-f][1]oxa[5,6,9]triazacyclotridecine]-11′,13′-dionene] | 310 | > 10000
11 | O=C1c2c(O)c(=O)ccn2N2CN1C1(/C=C/COc3cccc4c3[C@@H]2c2ccccc2SC4)CCC1 (single isomer, unassigned) [Compound 147A, (17a′*R,*E)-12′-hydroxy-2′,17a′-dihydro-6′H-spiro[cyclobutane-1,9′-[3,4](epiprop[1]en[1]yl[3]ylidene)[10,17]methanobenzo[6,7]thiepino[4,5-c]pyrido[1,2-f][1]oxa[5,6,9]triazacyclotridecine]-11′,13′-dione] | > 5000 | > 10000
12 | O=C1c2c(O)c(=O)ccn2N2CN1C1(/C=C/COc3cccc4c3[C@H]2c2ccccc2SC4)CCC1 (single isomer, unassigned) [Compound 147B, (17a′*S,*E)-12′-hydroxy-2′,17a′-dihydro-6′H-spiro[cyclobutane-1,9′-[3,4](epiprop[1]en[1]yl[3]ylidene)[10,17]methanobenzo[6,7]thiepino[4,5-c]pyrido[1,2-f][1]oxa[5,6,9]triazacyclotridecine]-11′,13′-dione] | 0.33 | > 100
13 | C[C@@H]1/C=C/COc2c(ccc(F)c2F)[C@@H](c2ccccc2)N2CN1C(=O)c1c(O)c(=O)ccn12 (single isomer, unassigned) [Compound 148AA, (9*R,18*R,*E)-3,4-difluoro-12-hydroxy-9-methyl-18-phenyl-6,9-dihydro-18H-10,17-methanobenzo[b]pyrido[1,2-f][1]oxa[5,6,9]triazacyclotridecine-11,13-dione] | 1.6 | > 50
14 | C[C@@H]1/C=C/COc2c(ccc(F)c2F)[C@H](c2ccccc2)N2CN1C(=O)c1c(O)c(=O)ccn12 (single isomer, unassigned) [Compound 148BA, (9*R,18*S,*E)-3,4-difluoro-12-hydroxy-9-methyl-18-phenyl-6,9-dihydro-18H-10,17-methanobenzo[b]pyrido[1,2-f][1]oxa[5,6,9]triazacyclotridecine-11,13-dione] | 2600 | > 10000
15 | COC[C@H]1/C=C/COc2ccccc2[C@@H](c2ccccc2)N2CN1C(=O)c1c(O)c(=O)ccn12 (single isomer, unassigned) [Compound 150A, (9*R,18*R,*E)-12-hydroxy-9-(methoxymethyl)-18-phenyl-6,9-dihydro-18H-10,17-methanobenzo[b]pyrido[1,2-f][1]oxa[5,6,9]triazacyclotridecine-11,13-dione] | 9 | > 100
16 | COC[C@@H]1/C=C/COc2ccccc2[C@H](c2ccccc2)N2CN1C(=O)c1c(O)c(=O)ccn12 (single isomer, unassigned) [Compound 150B, (9*S,18*S,*E)-12-hydroxy-9-(methoxymethyl)-18-phenyl-6,9-dihydro-18H-10,17-methanobenzo[b]pyrido[1,2-f][1]oxa[5,6,9]triazacyclotridecine-11,13-dione] | 3260 | > 10000
17 | O=C1c2c(O)c(=O)ccn2N2CN1CC/C=C\COc1ccc(F)c3c1[C@@H]2c1cccc(F)c1SC3 (single isomer, unassigned) [Compound 151A, (1*R,13*Z)-20,25-difluoro-7-hydroxy-16-oxa-23-thia-2,3,10-triazahexacyclo[15.12.1.12,10.03,8.021,30.024,29]hentriaconta-4,7,13,17,19,21(30),24(29),25,27-nonaene-6,9-dione] | > 50 | > 100
18 | O=C1c2c(O)c(=O)ccn2N2CN1CC/C=C\COc1ccc(F)c3c1[C@H]2c1cccc(F)c1SC3 (single isomer, unassigned) [Compound 151B, (1*S,13*Z)-20,25-difluoro-7-hydroxy-16-oxa-23-thia-2,3,10-triazahexacyclo[15.12.1.12,10.03,8.021,30.024,29]hentriaconta-4,7,13,17,19,21(30),24(29),25,27-nonaene-6,9-dione] | 4.4 | > 100
19 | O=C1c2c(O)c(=O)ccn2N2CN1[C@@H](C1CC1)/C=C/COc1c(ccc(F)c1F)[C@@H]2c1ccccc1 (single isomer, unassigned) [Compound 152AA, (9*S,18*S,*E)-9-cyclopropyl-3,4-difluoro-12-hydroxy-18-phenyl-6,9-dihydro-18H-10,17-methanobenzo[b]pyrido[1,2-f][1]oxa[5,6,9]triazacyclotridecine-11,13-dione] | > 50 | > 100
20 | O=C1c2c(O)c(=O)ccn2N2CN1[C@H](C1CC1)/C=C/COc1c(ccc(F)c1F)[C@@H]2c1ccccc1 (single isomer, unassigned) [Compound 152AB, (9*R,18*S,*E)-9-cyclopropyl-3,4-difluoro-12-hydroxy-18-phenyl-6,9-dihydro-18H-10,17-methanobenzo[b]pyrido[1,2-f][1]oxa[5,6,9]triazacyclotridecine-11,13-dione] | > 50 | > 100
21 | O=C1c2c(O)c(=O)ccn2N2CN1[C@@H](C1CC1)/C=C/COc1c(ccc(F)c1F)[C@H]2c1ccccc1 (single isomer, unassigned) [Compound 152BA, (9*S,18*R,*E)-9-cyclopropyl-3,4-difluoro-12-hydroxy-18-phenyl-6,9-dihydro-18H-10,17-methanobenzo[b]pyrido[1,2-f][1]oxa[5,6,9]triazacyclotridecine-11,13-dione] | 1.3 | > 200
